pIC50: −log10 of the molar value. Read-outs that look alike come from different tables or passages of the source.
Assays:
CCR2 = biological target: T1, CCR2 (Homo sapiens, UniProt P41597)
T1 sequence (P41597 1-360 isoform P41597-2): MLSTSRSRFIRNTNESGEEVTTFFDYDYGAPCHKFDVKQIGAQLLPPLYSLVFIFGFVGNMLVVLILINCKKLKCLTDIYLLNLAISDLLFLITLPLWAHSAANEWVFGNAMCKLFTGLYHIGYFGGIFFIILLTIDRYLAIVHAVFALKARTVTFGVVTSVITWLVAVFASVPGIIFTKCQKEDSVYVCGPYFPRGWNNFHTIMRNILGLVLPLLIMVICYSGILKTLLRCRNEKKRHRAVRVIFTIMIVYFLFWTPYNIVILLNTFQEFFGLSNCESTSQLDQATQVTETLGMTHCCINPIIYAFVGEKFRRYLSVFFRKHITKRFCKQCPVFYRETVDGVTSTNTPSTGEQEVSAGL

THP-1 cells [1] = settings: for inhibition at 25 µM: THP-1, read-out: Inhibition of MCP-1 Induced Calcium Ion Influx, percent inhibition
THP-1 cells [2] = assay: MCP-1 Induced Chemotaxis in THP-1 Cells; assay type: cell-based; settings: read-out: Inhibition of MCP-1 Induced Chemotaxis IC50
[3] = Homo sapiens, THP-1, read-out: Inhibition of MCP-1 Induced Calcium Ion Influx IC50
[4] = Homo sapiens, THP-1 cells, MCP-1 0.01 μg/mL, 3 hours
[5] = read-out: Inhibition of MCP-1 Induced Calcium Ion Influx IC50, THP-1 cells, 0.2 μM MCP-1, FLIPR
[6] = THP-1 cells, MCP-1 0.01 μg/mL, 3 hours
[7] = Homo sapiens, THP-1, read-out: Inhibition of MCP-1 Induced Calcium Ion Influx IC50, THP-1 cells, 0.2 μM MCP-1, FLIPR

Row | Compound | pIC50 (CCR2) | pIC50 (THP-1 cells [1]; [3]) | pIC50 (THP-1 cells [2]; [4]) | further results
1 | O=C(/C=C/c1cc(F)cc(F)c1)N1CCC(C(CO)N2CCC(c3c[nH]c4ccc(O)cc34)CC2)CC1 (centres unmarked) [Cpd 259, (2E)-3-(3,5-difluoro-phenyl)-1-(4-{2-hydroxy-1-[4-(5-hydroxy-1H-indol-3-yl)-piperidin-1-yl]-ethyl}-piperidin-1-yl)-propenone] | 8.70 | – | 8.30 | inhibition at 25 µM (THP-1 cells [1]; Homo sapiens): 88%
2 | Cc1ccc(NC(=O)N2CCC(C(C(=O)O)N3CCC(c4c[nH]c5ccccc45)CC3)CC2)cc1C(F)(F)F (centres unmarked) [Cpd 106, [4-(1H-indol-3-yl)-piperidin-1-yl]-[1-(4-methyl-3-trifluoromethyl-phenylcarbamoyl)-piperidin-4-yl]-acetic acid] | 7.70 | 6.96 | 6.68 | –
3 | Cc1ccc(NC(=O)N2CCC(C(C(=O)O)N3CCC(c4c[nH]c5ccccc45)CC3)CC2)cc1C (centres unmarked) [Cpd 100, [1-(3,4-dimethyl-phenylcarbamoyl)-piperidin-4-yl]-[4-(1H-indol-3-yl)-piperidin-1-yl]-acetic acid] | – | 6.32 | – | pIC50 (THP-1 cells [2]; Homo sapiens, THP-1, 3 h): 6.03
4 | Cc1cc(NC(=O)N2CCC(C(C(=O)O)N3CCC(c4c[nH]c5ccccc45)CC3)CC2)ccc1F (centres unmarked) [Cpd 102, [1-(4-fluoro-3-methyl-phenylcarbamoyl)-piperidin-4-yl]-[4-(1H-indol-3-yl)-piperidin-1-yl]-acetic acid] | 6.59 | 6.07 | 6.64 | –
5 | O=C(O)C(C1CCN(C(=O)Nc2ccc(Cl)cc2)CC1)N1CCC(c2c[nH]c3ccccc23)CC1 (centres unmarked) [Cpd 88, [1-(4-chloro-phenylcarbamoyl)-piperidin-4-yl]-[4-(1H-indol-3-yl)-piperidin-1-yl]-acetic acid] | – | 6.39 | 6.62 | –
6 | O=C(/C=C/c1cccc(C(F)(F)F)c1)N1CCC(C(CO)N2CCC(c3ccncc3)CC2)CC1 (centres unmarked) [Cpd 184, (2E)-1-{4-[2-hydroxy-1-(3,4,5,6-tetrahydro-2H-[4,4′]bipyridinyl-1-yl)-ethyl]-piperidin-1-yl}-3-(3-trifluoromethyl-phenyl)-propenone] | 5.80 | – | – | inhibition at 25 µM (THP-1 cells [1]; Homo sapiens): 14%
7 | O=C(/C=C/c1cc(F)cc(F)c1)N1CCC(C(CO)N2CCC(c3nc4cc(Cl)c(Cl)cc4[nH]3)CC2)CC1 (centres unmarked) [Cpd 256, (2E)-1-(4-{1-[4-(5,6-dichloro-1H-benzoimidazol-2-yl)-piperidin-1-yl]-2-hydroxy-ethyl}-piperidin-1-yl)-3-(3,5-difluoro-phenyl)-propenone] | – | – | – | Inhibition of MCP-1 Binding, percent inhibition (CCR2; test concentration of 25 μM, IC50 not obtained): 25%; pIC50 (THP-1 cells [1]; [5]): 4.96
8 | COc1ccc2c(C3CCN(C(CO)C4CCN(C(=O)/C=C/c5cc(F)c(F)c(F)c5)CC4)CC3)c[nH]c2c1 (centres unmarked) [Cpd 167, (2E)-1-(4-{2-hydroxy-1-[4-(6-methoxy-1H-indol-3-yl)-piperidin-1-yl]-ethyl}-piperidin-1-yl)-3-(3,4,5-trifluoro-phenyl)-propenone] | – | – | – | pIC50 (THP-1 cells [1]; [5]): 7.52; pIC50 (THP-1 cells [2]; [6]): 7.52
9 | COC(=O)C(C1CCN(C(=O)/C=C/c2cc(F)c(F)c(F)c2)CC1)N1CCC(c2c[nH]c3ccccc23)CC1 (centres unmarked) [Cpd 87, [4-(1H-indol-3-yl)-piperidin-1-yl]-{1-[(2E)-3-(3,4,5-trifluoro-phenyl)-acryloyl]-piperidin-4-yl}-acetic acid methyl ester] | – | 6.44 | – | pIC50 (THP-1 cells [2]; Homo sapiens, THP-1, 3 h): 6.00
10 | NC(=O)C(C1CCN(C(=O)/C=C/c2cc(F)c(F)c(F)c2)CC1)N1CCC(c2c[nH]c3ncccc23)CC1 (centres unmarked) [Cpd 227, 2-[4-(1H-pyrrolo[2,3-b]pyridin-3-yl)-piperidin-1-yl]-2-{1-[(2E)-3-(3,4,5-trifluoro-phenyl)-acryloyl]-piperidin-4-yl}-acetamide] | – | – | – | pIC50 (CCR2; Inhibition of MCP-1 Binding IC50, 125I labeled MCP-1 binding to CCR2, THP-1 cells): 6.02; pIC50 (THP-1 cells [1]; [7]): 6.06
11 | N=C(NC(=O)c1ccc(Cl)c(Cl)c1)N1CCC(C(CO)N2CCC(c3c[nH]c4ccccc34)CC2)CC1 (centres unmarked) [Cpd 128, 3,4-dichloro-N-[(4-{2-hydroxy-1-[4-(1H-indol-3-yl)-piperidin-1-yl]-ethyl}-piperidin-1-yl)-imino-methyl]-benzamide] | 6.49 | 7.70 | – | –
12 | O=C(C=Cc1ccc(Cl)c(Cl)c1)N1CCC(C(CO)N2CCC(c3ccc(Cl)cc3)CC2)CC1 (centres unmarked) [Cpd 244, (2E)-1-(4-{1-[4-(4-chloro-phenyl)-piperidin-1-yl]-2-hydroxy-ethyl}-piperidin-1-yl)-3-(3,4-dichloro-phenyl)-propenone] | 6.59 | 7.10 | – | –
13 | O=C(/C=C/c1ccc(Cl)c(Cl)c1)N1CCC(C(CCl)N2CCC(c3ccc(Cl)cc3)CC2)CC1 (centres unmarked) [Cpd 245] | 5.66 | 6.40 | – | –
14 | OCC(C1CCN(C(=S)Nc2cc(F)cc(F)c2)CC1)N1CCC(c2c[nH]c3ccccc23)CC1 (centres unmarked) [Cpd 124, 4-{2-hydroxy-1-[4-(1H-indol-3-yl)-piperidin-1-yl]-ethyl}-piperidine-1-carbothioic acid (3,5-difluoro-phenyl)-amide] | 6.89 | 7.15 | – | –
15 | O=C(O)[C@@H](C1CCN(C(=O)/C=C/c2cc(F)c(F)c(F)c2)CC1)N1CCC(c2c[nH]c3ccccc23)CC1 [Cpd 14] | – | 5.95 | – | pIC50 (THP-1 cells [2]; Homo sapiens, THP-1, 3 h): 7.15
16 | COc1ccc2c(C3CCN(C(CO)C4CCN(C(=O)/C=C/c5cc(F)c(F)c(F)c5)CC4)CC3)c[nH]c2c1 (centres unmarked) [Cpd 132, (2E)-1-(4-{2-hydroxy-1-[4-(6-methoxy-1H-indol-3-yl)-piperidin-1-yl]-ethyl}-piperidin-1-yl)-3-(3,4,5-trifluoro-phenyl)-propenone] | – | – | – | pIC50 (THP-1 cells [1]; [5]): 8.52; pIC50 (THP-1 cells [2]; [6]): 7.15
17 | O=C(/C=C/c1ccc(Cl)c(Cl)c1)N1CCC(C(CO)N2CCC(c3c[nH]c4ncccc34)CC2)CC1 (centres unmarked) [Cpd 208, (2E)-3-(3,4-dichloro-phenyl)-1-(4-{2-hydroxy-1-[4-(1H-pyrrolo[2,3-b]pyridin-3-yl)-piperidin-1-yl]-ethyl}-piperidin-1-yl)-propenone] | – | – | – | pIC50 (THP-1 cells [1]; [7]): 9.10; pIC50 (THP-1 cells [2]; Homo sapiens, THP-1, 3 h, THP-1 cells, MCP-1 0.01 μg/mL, 3 hours): 7.89
18 | O=C(/C=C/c1ccc(Cl)cc1)N1CCC(C(CO)N2CCC(c3ccc(Cl)cc3)CC2)CC1 (centres unmarked) [Cpd 258, (2E)-3-(4-chloro-phenyl)-1-(4-{1-[4-(4-chloro-phenyl)-piperidin-1-yl]-2-hydroxy-ethyl}-piperidin-1-yl)-propenone] | 6.70 | 5.64 | – | –

Further lines, with some results ahead:

Row | pIC50 (CCR2) | pIC50 (THP-1 cells [1]; [3]) | pIC50 (THP-1 cells [2]; [4]) | Compound | further results
19 | 9.70 | 10.00 | 7.92 | O=C(/C=C/c1ccc(Cl)c(Cl)c1)N1CCC(C(CO)N2CCC(c3c[nH]c4ccccc34)CC2)CC1 (centres unmarked) [Cpd 121, (2E)-3-(3,4-dichloro-phenyl)-1-(4-{2-hydroxy-1-[4-(1H-indol-3-yl)-piperidin-1-yl]-ethyl}-piperidin-1-yl)-propenone] | –
20 | 7.52 | 7.70 | 8.10 | CC(=O)OCC(C1CCN(C(=O)/C=C/c2cc(F)cc(F)c2)CC1)N1CCC(c2c[nH]c3ccccc23)CC1 (centres unmarked) [Cpd 235, acetic acid 2-{1-[(2E)-3-(3,5-difluoro-phenyl)-acryloyl]-piperidin-4-yl}-2-[4-(1H-indol-3-yl)-piperidin-1-yl]-ethyl ester] | –
21 | 7.15 | 6.31 | 7.05 | O=C(O)C(C1CCN(C(=O)/C=C/c2cccs2)CC1)N1CCC(c2c[nH]c3ccccc23)CC1 (centres unmarked) [Cpd 103, [4-(1H-indol-3-yl)-piperidin-1-yl]-{1-[(2E)-3-thiophen-2-yl-acryloyl]-piperidin-4-yl}-acetic acid] | –
22 | 6.92 | 7.52 | 7.70 | O=C(C=Cc1ccc(F)c(F)c1)N1CCC(C(CO)N2CCC(c3c[nH]c4ccc(F)cc34)CC2)CC1 (centres unmarked) [Cpd 254, (2E)-3-(3,4-difluoro-phenyl)-1-(4-{1-[4-(5-fluoro-1H-indol-3-yl)-piperidin-1-yl]-2-hydroxy-ethyl}-piperidin-1-yl)-propenone] | –
23 | 6.60 | 5.74 | 6.15 | CC(=O)NCC(C1CCN(C(=O)/C=C/c2cccc(C)c2)CC1)N1CCC(c2c[nH]c3ccccc23)CC1 (centres unmarked) [Cpd 216] | –
24 | – | 7.05 | 6.77 | CC(=O)NCC(C1CCN(C(=O)/C=C/c2cc(F)c(F)c(F)c2)CC1)N1CCC(c2c[nH]c3ccccc23)CC1 (centres unmarked) [Cpd 213, N-(2-[4-(1H-indol-3-yl)-piperidin-1-yl]-2-{1-[(2E)-3-(3,4,5-trifluoro-phenyl)-acryloyl]-piperidin-4-yl}-ethyl)-acetamide] | –
25 | 6.47 | – | – | CC(=O)NCC(C1CCN(C(=O)/C=C/c2ccsc2)CC1)N1CCC(c2c[nH]c3ccccc23)CC1 (centres unmarked) [Cpd 219] | inhibition at 25 µM (THP-1 cells [1]; Homo sapiens): 52%
26 | – | 8.10 | 8.00 | O=C(/C=C/c1cccc(C(F)(F)F)c1)N1CCC(C(CO)N2CCC(c3c[nH]c4ccccc34)CC2)CC1 (centres unmarked) [Cpd 119, (2E)-1-(4-{2-hydroxy-1-[4-(1H-indol-3-yl)-piperidin-1-yl]-ethyl}-piperidin-1-yl)-3-(3-trifluoromethyl-phenyl)-propenone] | –
27 | 6.36 | 6.02 | – | O=CNCC(C1CCN(C(=O)/C=C/c2cc(F)c(F)c(F)c2)CC1)N1CCC(c2c[nH]c3ccccc23)CC1 (centres unmarked) [Cpd 220] | –
